Test [1] concerns the target prolyl endopeptidase (Elizabethkingia meningoseptica, UniProt P27028). The experiment in a line: Anti-prolyl endopeptidase activity (inhibition of digestion of Z-glycyl-prolyl-β-naphthylamide). It counts as biochemical. To be noted: amount for 50% inhibition; 0.0025M Z-glycyl-prolyl-β-naphthylamide (0.25 ml), pH 7.0, 35° C., 10 minutes, absorbance at 410 nm. The protocol: The method of Yoshimoto and Tsuru [T. Yoshimoto and D. Tsuru, Agric. Biol. Chem., 42, 2417 (1978)] was used to measure the anti-prolyl endopeptidase activities of several compounds of the present invention. A mixture of 0.0025M Z-glycyl-prolyl-β-naphthylamide (0.25 ml), 0.1M phosphate buffer (pH, 7.0; 0.99 ml) and a solution of a particular anti-prolyl endopeptidase compound (0.01 ml) was incubated in a test tube at 37° C. for 3 minutes. Thereafter, 0.1 ml of a solution of prolyl endopeptidase (0.2 U/ml) was added and the mixture was incubated at 35° C. for 10 minutes. After the reaction, 2.0 ml of Triton X-100 in 1M acetate buffer (pH, 4.0) was added to the reaction mixture so that the final concentration of the surfactant might be 10%. The mixture was left at room temperature for 15 minutes and the absorbance (a) at 410 nm was measured.
A sample of a blind test was prepared by using the buffer instead of the anti-prolyl endopeptidase compound and its absorbance (b) was also measured. The percentage of inhibition against prolyl endopeptidase was calculated by the formula: […]
and the amount of a specific compound need to achieve 50% inhibition (IC50) was determined.

Test [2] deals with DDY strain male mice. The experiment in a line: Memory fixation test in mice (passive avoidance learning). It counts as in vivo. To be noted: 5 mice, assessed 24 hours after learning, physiological saline control 47 sec. The protocol: The measurement was conducted in accordance with the method described in Experientia 40, 506 (1984) with a slight modification made by the inventors. Several of the compounds of the invention were checked for their ability to enhance long-term memory fixation in the passive avoidance learning method using an apparatus which has an electrifiable grid floor and a refuge platform on one end of the floor. […] One hour after the administration, electric shocks were applied to the mice in a black box so that they would acquire passive avoidance learning.
The results of the test were assessed 24 hours after the learning in terms of the memory fixation acquired in the passive avoidance learning by measuring the residence time (latency) during which the mice stayed on the platform. The results between the test groups which received the test compound and the control group which received physiological saline in place of the test compound were compared.

From patent publication US4810721A, “Pyrrolidineamide derivative having anti-prolyl endopeptidase” (Suntory Limited, priority 1986, dated 1989) come the findings set out here.

The structures appear in SMILES notation.

Sequence of prolyl endopeptidase (P27028 21-705): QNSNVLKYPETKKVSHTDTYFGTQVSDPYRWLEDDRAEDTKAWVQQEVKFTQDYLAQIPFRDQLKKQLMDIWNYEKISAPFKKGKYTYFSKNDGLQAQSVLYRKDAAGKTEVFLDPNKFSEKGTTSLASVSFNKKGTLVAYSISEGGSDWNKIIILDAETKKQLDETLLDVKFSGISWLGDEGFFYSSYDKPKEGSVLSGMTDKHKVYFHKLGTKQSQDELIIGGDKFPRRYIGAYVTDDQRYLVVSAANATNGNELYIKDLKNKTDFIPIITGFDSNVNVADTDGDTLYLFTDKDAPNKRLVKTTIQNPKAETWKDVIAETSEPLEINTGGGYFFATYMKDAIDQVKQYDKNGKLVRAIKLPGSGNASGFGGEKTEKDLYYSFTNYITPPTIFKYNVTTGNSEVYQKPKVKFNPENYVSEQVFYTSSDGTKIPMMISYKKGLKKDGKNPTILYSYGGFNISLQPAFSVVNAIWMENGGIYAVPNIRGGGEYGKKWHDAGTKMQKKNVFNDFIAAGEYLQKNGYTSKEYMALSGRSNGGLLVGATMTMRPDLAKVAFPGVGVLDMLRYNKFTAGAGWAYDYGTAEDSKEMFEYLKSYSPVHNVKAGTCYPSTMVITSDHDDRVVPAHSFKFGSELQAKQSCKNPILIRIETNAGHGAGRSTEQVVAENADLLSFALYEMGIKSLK

For `O=C([C@@H]1C[C@@H](O)CN1C(=O)CCCc1ccccc1)N1CCCC1` [SUAM 14432, N-[N-(4-phenylbutanoyl)-trans-4-hydroxy-L-prolyl]pyrrolidine], the IC50 in test [1] stood at 0.07 μg/test tube. Besides, the Latency in test [2] (1.0 mg/kg per os) turned out to be 76 s; in test [2] (3.0 mg/kg per os) it was 153 s. As to `COc1ccc(O[C@H]2C[C@@H](C(=O)N3CCCC3)N(C(=O)CCCc3ccccc3)C2)cc1` [SUAM 14441, N-[N-(4-phenylbutanoyl)-cis-4-(4-methoxyphenoxy)-L-prolyl]pyrrolidine], the IC50 in test [1] stood at 0.01 μg/test tube. This molecule also gave a Latency in test [2] (1.0 mg/kg per os) of 101 s. `COc1ccccc1O[C@H]1C[C@@H](C(=O)N2CCCC2)N(C(=O)CCCc2ccccc2)C1` [SUAM 14467, N-[N-(4-phenylbutanoyl)-cis-4-(2-methoxyphenoxy)-L-prolyl]pyrrolidine] had an IC50 in test [1] of 0.008 μg/test tube. The same measure, in the same setting: next, `COc1cccc(O[C@H]2C[C@@H](C(=O)N3CCCC3)N(C(=O)CCCc3ccccc3)C2)c1` [SUAM 14468, N-[N-(4-phenylbutanoyl)-cis-4-(3-methoxyphenoxy)-L-prolyl]pyrrolidine]: 0.03 μg/test tube.

On to `COc1ccc(O[C@H]2C[C@@H](C(=O)N3CCCC3)N(C(=O)OCc3ccccc3)C2)cc1` [SUAM 14491, N-[N-benzyloxycarbonyl-cis-4-(4-methoxyphenoxy)-L-prolyl]pyrrolidine], for which, in test [1], the IC50 came to 0.04 μg/test tube.

`O=C([C@@H]1C[C@H](O)CN1C(=O)CCCc1ccccc1)N1CCCC1` [SUAM 14496, N-[N-(4-phenylbutanoyl)-cis-4-hydroxy-L-prolyl]pyrrolidine] gave an IC50 in test [1] of 0.10 μg/test tube. Moreover, the Latency in test [2] (0.3 mg/kg per os) turned out to be 147 s; in test [2] (1.0 mg/kg per os), 138 s; in test [2] (3.0 mg/kg per os), 135 s. `COc1ccc(C(=O)O[C@@H]2C[C@@H](C(=O)N3CCCC3)N(C(=O)CCCc3ccccc3)C2)cc1` [SUAM 14497, N-[N-4-phenylbutanoyl)-trans-4-(4-methoxybenzoyloxy-L-prolyl]pyrrolidine] showed an IC50 in test [1] of 0.15 μg/test tube. On the same count and under the same terms, then `O=C(O[C@@H]1C[C@@H](C(=O)N2CCCC2)N(C(=O)CCCc2ccccc2)C1)c1ccccc1` [SUAM 14498], with 0.30 μg/test tube; and `O=C(O[C@@H]1C[C@@H](C(=O)N2CCCC2)N(C(=O)CCCc2ccccc2)C1)c1ccc(Cl)cc1` [SUAM 14499, N-[N-(4-phenylbutanoyl)-trans-4-(4-chlorobenzoyloxy)-L-prolyl]pyrrolidine], with 0.20 μg/test tube.

Take `COc1ccc(C(=O)O[C@H]2C[C@@H](C(=O)N3CCCC3)N(C(=O)CCCc3ccccc3)C2)cc1` [SUAM 14501]: the IC50 in test [1] was determined as 0.04 μg/test tube.

`O=C(O[C@H]1C[C@@H](C(=O)N2CCCC2)N(C(=O)CCCc2ccccc2)C1)c1ccccc1` [SUAM 14502, N-[N-(4-phenylbutanoyl)-cis-4-benzoyloxy-L-prolyl]pyrrolidine] gave an IC50 in test [1] of 0.06 μg/test tube.

In the case of `O=C(O[C@H]1C[C@@H](C(=O)N2CCCC2)N(C(=O)CCCc2ccccc2)C1)c1ccc(Cl)cc1` [SUAM 14503, N-[N-(4-phenylbutanoyl)-cis-4-(4-chlorobenzoyloxy)-L-prolyl]pyrrolidine], the IC50 in test [1] worked out at 0.06 μg/test tube. The same measure, in the same setting: then `O=C([C@@H]1C[C@H](Oc2ccccc2)CN1C(=O)CCCc1ccccc1)N1CCCC1` [SUAM 14504, N-[N-(4-phenylbutanoyl)-cis-4-phenoxy-L-prolyl]pyrrolidine], with 0.02 μg/test tube. For `CC(=O)O[C@@H]1C[C@@H](C(=O)N2CCCC2)N(C(=O)CCCc2ccccc2)C1` [SUAM 14506, N-[N-(4-phenylbutanoyl)-trans-4-acetoxy-L-prolyl]pyrrolidine], the IC50 in test [1] was 0.03 μg/test tube. The molecule further gave a Latency in test [2] (3.0 mg/kg per os) of 64 s. For `CC(=O)O[C@H]1C[C@@H](C(=O)N2CCCC2)N(C(=O)CCCc2ccccc2)C1` [SUAM 14507, N-[N-(4-phenylbutanoyl)-cis-4-acetoxy-L-prolyl]pyrrolidine], in that order: 0.10 μg/test tube and 53 s. With `O=C([C@@H]1C[C@H](Oc2ccc(Cl)cc2)CN1C(=O)CCCc1ccccc1)N1CCCC1` [SUAM 14508, N-[N-(4-phenylbutanoyl)-cis-4-(4-chlorophenoxy)-L-prolyl]pyrrolidine], the IC50 in test [1] is listed as 0.04 μg/test tube.

With `Cc1ccc(O[C@H]2C[C@@H](C(=O)N3CCCC3)N(C(=O)CCCc3ccccc3)C2)cc1` [SUAM 14509, N-[N-(4-phenylbutanoyl)-cis-4-(4-methylphenoxy)-L-prolyl]pyrrolidine], the IC50 in test [1] came out at 0.03 μg/test tube. In addition, the Latency in test [2] (3.0 mg/kg per os) amounted to 95 s.
